Our source for the ΔTm values is article PMC3145970, “Specific CLK Inhibitors from a Novel Chemotype for Regulation of Alternative Splicing” (Chemistry & Biology, 2011).

Like-named read-outs stand apart in the source and are kept apart here.

Common to all, as to test: Thermal stability shift assay
What all share (type): binding

The target in assay [1] is T1, PRKX (Homo sapiens, UniProt P51817).
T1 sequence (P51817 1-358): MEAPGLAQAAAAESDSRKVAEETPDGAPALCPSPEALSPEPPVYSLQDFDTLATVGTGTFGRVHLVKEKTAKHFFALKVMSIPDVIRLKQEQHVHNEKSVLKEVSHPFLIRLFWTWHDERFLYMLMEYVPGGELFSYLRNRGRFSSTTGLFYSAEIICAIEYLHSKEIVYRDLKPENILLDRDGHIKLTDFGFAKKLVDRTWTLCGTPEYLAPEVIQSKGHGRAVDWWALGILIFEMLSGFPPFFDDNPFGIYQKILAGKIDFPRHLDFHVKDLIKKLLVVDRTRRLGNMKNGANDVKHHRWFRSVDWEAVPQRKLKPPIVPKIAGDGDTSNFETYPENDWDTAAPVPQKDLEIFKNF
The conditions noted are these: read-out: Tm shift PRKX. As to the method:
(§1) Thermal denaturation experiments were carried out in an Mx3005p real-time PCR machine (Agilent) using a protein concentration of 2 μM and an inhibitor concentration of 10 μM. Samples were buffered in 10 mM HEPES (pH 7.5), 500 mM NaCl and a 1:1000 dilution of SyproOrange (Invitrogen). The assay and data evaluation were carried out as described ([Bullock et al., 2005])

Assay [2] has as its target T2, SgK085 (Homo sapiens, UniProt Q86YV6).
T2 sequence (Q86YV6 1-388): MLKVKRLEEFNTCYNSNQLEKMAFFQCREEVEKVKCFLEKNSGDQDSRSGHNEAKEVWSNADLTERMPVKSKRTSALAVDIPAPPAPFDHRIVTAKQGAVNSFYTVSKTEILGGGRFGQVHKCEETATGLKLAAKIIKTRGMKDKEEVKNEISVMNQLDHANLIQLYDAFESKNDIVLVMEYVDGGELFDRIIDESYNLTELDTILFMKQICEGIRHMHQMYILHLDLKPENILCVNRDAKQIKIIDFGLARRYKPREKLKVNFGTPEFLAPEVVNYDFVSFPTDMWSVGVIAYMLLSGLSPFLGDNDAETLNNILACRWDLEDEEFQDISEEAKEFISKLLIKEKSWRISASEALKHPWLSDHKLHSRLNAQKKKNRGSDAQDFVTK
The conditions noted are these: read-out: Tm shift SgK085. As to the method: as §1

The target in assay [3] is T3, NDR1 (Homo sapiens, UniProt Q15208).
T3 construct: purchased in-house (SGC Oxford thermal shift panel)
The conditions noted are these: read-out: Tm shift NDR1. As to the method: as §1

For assay [4], the target named is T4, PKD3 (Homo sapiens, UniProt O94806).
T4 sequence (O94806 1-890): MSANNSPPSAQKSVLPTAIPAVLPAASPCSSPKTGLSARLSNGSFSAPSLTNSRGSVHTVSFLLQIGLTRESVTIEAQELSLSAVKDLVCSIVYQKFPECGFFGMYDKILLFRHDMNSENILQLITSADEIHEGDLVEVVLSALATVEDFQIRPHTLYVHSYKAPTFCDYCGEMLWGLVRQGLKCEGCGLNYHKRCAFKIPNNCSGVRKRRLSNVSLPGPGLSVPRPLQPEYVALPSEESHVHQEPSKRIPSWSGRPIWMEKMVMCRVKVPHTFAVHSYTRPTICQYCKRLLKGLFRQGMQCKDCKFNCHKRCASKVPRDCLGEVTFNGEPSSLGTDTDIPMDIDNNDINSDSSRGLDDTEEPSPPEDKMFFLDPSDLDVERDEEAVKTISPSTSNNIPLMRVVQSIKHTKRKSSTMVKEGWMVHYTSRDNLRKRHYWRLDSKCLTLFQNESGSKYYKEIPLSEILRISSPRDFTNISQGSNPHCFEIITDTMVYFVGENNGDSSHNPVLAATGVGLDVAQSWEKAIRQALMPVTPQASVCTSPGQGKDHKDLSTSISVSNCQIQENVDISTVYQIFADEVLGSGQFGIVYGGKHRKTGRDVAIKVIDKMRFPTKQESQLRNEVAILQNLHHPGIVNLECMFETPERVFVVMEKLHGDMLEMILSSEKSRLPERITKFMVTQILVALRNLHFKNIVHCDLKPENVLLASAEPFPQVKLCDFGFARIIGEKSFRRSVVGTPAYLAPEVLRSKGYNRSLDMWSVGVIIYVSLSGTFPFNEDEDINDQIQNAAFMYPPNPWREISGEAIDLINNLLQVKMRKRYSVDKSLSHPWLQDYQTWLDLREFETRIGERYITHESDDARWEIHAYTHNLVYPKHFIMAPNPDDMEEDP
Particulars: read-out: Tm shift PKD3. As to the method:
as §1

In assay [5] the target is T5, Haspin (Homo sapiens, UniProt Q8TF76).
T5 construct: purchased in-house (SGC Oxford thermal shift panel)
T5 sequence (Q8TF76 1-798): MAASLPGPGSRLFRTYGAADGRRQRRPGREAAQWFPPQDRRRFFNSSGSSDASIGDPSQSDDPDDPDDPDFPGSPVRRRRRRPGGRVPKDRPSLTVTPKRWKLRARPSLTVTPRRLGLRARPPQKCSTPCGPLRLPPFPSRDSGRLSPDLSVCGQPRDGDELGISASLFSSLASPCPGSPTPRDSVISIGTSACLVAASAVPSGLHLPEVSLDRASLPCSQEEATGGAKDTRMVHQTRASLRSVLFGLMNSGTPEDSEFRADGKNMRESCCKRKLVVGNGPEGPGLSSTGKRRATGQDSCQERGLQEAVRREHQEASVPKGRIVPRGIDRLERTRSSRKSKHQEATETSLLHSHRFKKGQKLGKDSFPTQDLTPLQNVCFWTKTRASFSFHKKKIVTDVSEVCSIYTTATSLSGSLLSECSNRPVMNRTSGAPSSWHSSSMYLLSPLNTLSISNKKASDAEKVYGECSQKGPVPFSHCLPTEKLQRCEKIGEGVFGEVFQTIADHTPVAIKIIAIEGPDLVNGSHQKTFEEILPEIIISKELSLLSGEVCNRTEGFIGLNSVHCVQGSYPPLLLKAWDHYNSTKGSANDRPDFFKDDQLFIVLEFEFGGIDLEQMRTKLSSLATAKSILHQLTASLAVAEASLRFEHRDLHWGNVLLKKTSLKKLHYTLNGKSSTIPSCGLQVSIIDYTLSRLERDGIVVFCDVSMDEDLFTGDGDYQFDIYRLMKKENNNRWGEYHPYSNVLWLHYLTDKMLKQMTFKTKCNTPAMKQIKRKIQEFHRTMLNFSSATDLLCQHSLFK
The conditions noted are these: read-out: Tm shift Haspin. As to the method:
as §1

T3 sequence (Q15208 whole entry): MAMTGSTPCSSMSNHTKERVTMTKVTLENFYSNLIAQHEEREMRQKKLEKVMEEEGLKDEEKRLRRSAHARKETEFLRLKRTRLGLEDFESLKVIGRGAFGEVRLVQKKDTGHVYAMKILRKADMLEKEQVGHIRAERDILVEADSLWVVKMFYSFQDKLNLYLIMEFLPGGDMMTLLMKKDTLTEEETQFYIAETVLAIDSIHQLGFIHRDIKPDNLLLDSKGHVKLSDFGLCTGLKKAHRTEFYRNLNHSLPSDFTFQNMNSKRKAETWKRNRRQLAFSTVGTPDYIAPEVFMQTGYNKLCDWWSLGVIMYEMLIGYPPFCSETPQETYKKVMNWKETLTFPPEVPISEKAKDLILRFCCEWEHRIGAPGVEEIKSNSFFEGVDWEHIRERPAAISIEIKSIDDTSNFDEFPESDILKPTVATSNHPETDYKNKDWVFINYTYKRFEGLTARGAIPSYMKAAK

Consider `CCOC(=O)c1c(/C(C#N)=C\N)c2ccc(Cl)c(Cl)c2n1C` [KH-CB19, (E)-Ethyl 3-(2-Amino-1-Cyanovinyl)-6,7-Dichloro-1-Methyl-1H-Indole-2-Carboxylate], for which the ΔTm at 10 µM in assay [1] stood at 0.5 °C; in assay [2] it was 4.1 °C; in assay [3], 0.2 °C; in assay [4] it was 0.1 °C; in assay [5], 2.1 °C.

Consider `NC1=NC(=O)/C(=C2\CCNC(=O)c3[nH]c(Br)cc32)N1` [Hymenialdisine, hymenialdisine, reference compound], for which the ΔTm at 10 µM in assay [1] (inhibitor 10 μM) came out at 0.3 °C; in assay [2] (inhibitor 10 μM), 2.7 °C; in assay [3] (inhibitor 10 μM), 1 °C; in assay [4] (inhibitor 10 μM) it was 2 °C; in assay [5] (inhibitor 10 μM), 3.9 °C.

With `CCOC(=O)c1c(C(C#N)=CN(C)C)c2ccc(Cl)c(Cl)c2n1C` (mixture of isomers) [compound 2, (E/Z)-Ethyl 6,7-Dichloro-3-[1-Cyano-2-(Dimethylamino)Vinyl]-1-Methyl-1H-Indole-2-Carboxylate], the ΔTm at 10 µM in assay [1] (inhibitor 10 μM) is 0.3 °C; in assay [2] (inhibitor 10 μM), 0.4 °C; in assay [3] (inhibitor 10 μM), 0.4 °C; in assay [4] (inhibitor 10 μM), 0 °C; in assay [5] (inhibitor 10 μM) it was 0.2 °C.

Consider `CCOC(=O)c1c(C(C#N)=CN)c2ccc(Cl)c(Cl)c2n1C` (mixture of isomers) [KH-CB20, (E/Z)-Ethyl 3-(2-Amino-1-Cyanovinyl)-6,7-Dichloro-1-Methyl-1H-Indole-2-Carboxylate], for which the ΔTm at 10 µM in assay [1] is 0.4 °C; in assay [2], 4.5 °C; in assay [3], 0.3 °C; in assay [4], 0.3 °C; in assay [5], 1.8 °C.

Turning to `Cn1c2c(Cl)c(Cl)ccc2c2c(C#N)c[nH]c(=O)c21` [compound 3, 7,8-Dichloro-9-Methyl-1-Oxo-2,9-Dihydro-1H-Pyrido[3,4-b]Indole-4-Carbonitrile], the ΔTm at 10 µM is 0.5 °C in assay [1] (inhibitor 10 μM); 2.9 °C in assay [2] (inhibitor 10 μM); 0.7 °C in assay [3] (inhibitor 10 μM); 0.4 °C in assay [4] (inhibitor 10 μM); 2.1 °C in assay [5] (inhibitor 10 μM).
